These results are taken from patent US20130156845A1, “LIPID FORMULATED SINGLE STRANDED RNA” (ALNYLAM PHARMACEUTICALS, INC., priority 2010, published 2013).

Like-named read-outs stand apart in the source and are kept apart here. Strand notation (5' to 3'): a small letter for the sugar, then the base; units joined by * are phosphorothioate-linked, units joined directly phosphodiester-linked; [ ] holds rarer units or linkages, { } end groups; capitals alone tell only the bases. [DMAEAc-N] = nucleoside with 2'-O-dimethylaminoethyl acetamide (DMAEAc) sugar (N: the base); [R5Me] = (R)-5'-methyl-2'-deoxythymidine; e = 2'-O-(2-methoxyethyl) (MOE); m = 2'-O-methyl; {P} = phosphate; f = 2'-fluoro

Series [1] is described as follows: Modified ssRNA 5′-phosphate serum stability assay (Example 60). The conditions noted are these: full length ssRNA with 5′-terminal phosphate; 10 μM in 95% fresh mouse serum, 37° C., LC/MS. In kind it is in vitro ADME. The source says: A serum stability assay is useful for evaluating the stability of oligomeric compounds in the presences of nucleases and other enzymes found in serum. For example, the stability of a 5′-terminal phosphate group of an oligomeric compound can be evaluated by assessing the ability of the 5′-terminal phosphate group to remain attached to the oligomeric compound in the presence of serum. Accordingly, a serum stability assay was employed to evaluate the stability of modified ssRNAs having a 5′-terminal phosphate group.
Various modified ssRNAs, shown below, having a 5′-terminal phosphate group (10 μM) were dissolved in 95% of fresh mouse serum and incubated at 37° C. Aliquots of serum (100 μL) were removed after 0, 1, 3, 6 or 24 hours of incubation times. The serum samples were immediately quenched and snap frozen. The samples were extracted by the strong anion exchange (SAX) and octadecylsilyl (C-18) columns. For each incubation time, the amount of full length modified ssRNA having a 5′-terminal phosphate group was determined by LC/MS, and the half-life of the full length modified ssRNA having a 5′ terminal phosphate group was calculated. The results are expressed as half-time (T1/2) in the table below.

Series [2] in a line: Phosphate stability in mouse serum (Example 68).
Experimental: Single-stranded oligomeric compounds were tested for stability in mouse serum.
For the next series, the system named is human PTEN. As to the kind of experiment: PTEN expression in HeLa cells, ssRNAs vs siRNAs (Example 62). In kind it is cell-based. The method, then:
A series of 5′ and 2′ bis-substituted modified oligomeric compounds were prepared as single strand RNAs (ssRNAs). The antisense (AS) strands listed below were designed to target human PTEN, and each was also assayed as part of a duplex with the same sense strand (ISIS 341401, shown below) for their ability to reduce PTEN expression levels. HeLa cells were treated with the single stranded or double stranded oligomeric compounds created with the antisense compounds shown below using methods described herein. The IC50's were calculated using the linear regression equation generated by plotting the normalized mRNA levels to the log of the concentrations used.

The test system of series [3] is PTEN. Briefly: Liver PTEN mRNA in Balb/c mice, unformulated oligomeric compounds (Example 70). The conditions noted are these: 48 h; for inhibition of PTEN: 75 mg/kg, liver; for % inhibition: liver PTEN mRNA, single i.p. dose 75 mg/kg, normalized to saline control. The series is classed as in vivo, mouse. The method, then:
Six-week-old male Balb/c mice (Jackson Laboratory, Bar Harbor, Me.) were injected intraperitenially with a single dose of 75 mg/kg of one of the three oligomeric compounds above or with saline control. Each dose group consisted of four animals. The mice were sacrificed 48 hours following administration. Livers were collected and PTEN mRNA levels were assessed using real-time PCR and RIBOGREEN® RNA quantification reagent (Molecular Probes, Inc. Eugene, Oreg.) according to standard protocols. PTEN mRNA levels were determined relative to total RNA (using Ribogreen), and normalized to the saline-treated control. Results are listed below as the average % inhibition of PTEN mRNA expression for each treatment group, normalized to saline-injected control.

Series [4] relates to PTEN. As to the kind of experiment: PTEN mRNA reduction in HeLa cells, dose response (Example 69). In kind it is cell-based, human. The conditions noted are these: percent inhibition of PTEN mRNA, 0.067-50 nM. As for the experimental part:
In accordance with the present disclosure, oligomeric compounds were synthesized and tested for their ability to reduce PTEN expression over a range of doses. Human HeLa cells were treated with either ISIS 447581, 467074, 418046 or 467076. A dose comparison was evaluated with dose concentrations of 0.067, 0.2, 0.62, 1.9, 5.5, 16.7 and 50 nM using methods described herein. Expression levels of PTEN were determined using real-time PCR and normalized to RIBOGREEN™ using methods described herein. The percent inhibition of PTEN mRNA was determined and the resulting dose-response curves were used to determine the EC50. The EC50s are listed below.

In series [5] the test system is PTEN. Briefly: In vivo evaluation of ssRNA formulated in lipid particle LNP06, liver PTEN mRNA (Example 77). The arrangement: species or system mouse. The conditions noted are these: ssRNA formulated in LNP06, 4.5 mg/kg tail vein, C57BL/6 mice, liver PTEN mRNA normalized to GAPDH, 2 days post injection. As for the experimental part:
In accordance with the present disclosure, oligomeric compounds were synthesized and tested for their ability to reduce PTEN. C57BL/6 mice (Charles River Labs, MA) received either saline or LNP formulated single stranded RNA via tail vein injection at a volume of 0.01 mL/g and the single stranded RNA dose is 4.5 mg/kg. 25 groups of female mice and 9 modified ssRNAs targeting PTEN were formulated in LNP06 and tested. To determine liver mRNA levels of PTEN, 2 days post injection, animals were sacrificed and livers were harvested and snap frozen in liquid nitrogen. Liver lysates were prepared from the frozen tissues and liver mRNA levels of PTEN normalized to GAPDH were quantified using a branched DNA assay (QuantiGene Assay, Panomics, Calif.).

The nature of series [6]: In vivo stability: tissue level of intact compound (Example 71).
Experimental: The in vivo stability of the three oligomeric compounds in Example 70 was evaluated. The tissue samples were obtained from the animals in which PTEN was assessed. […] Quantitative analysis of the oligonucleotides standard were performed by extracted ion chromatograms in the most abundant charge state (−4) using Chemstation software.
The test system of the next series is A549 cells. As to the kind of experiment: MicroRNA mimics: cell cycle assay. In kind it is cell-based. The conditions noted are these: RNAIMAX transfection, 0.1-100 nM, nocodazole, propidium iodide flow cytometry. As for the experimental part:
A cell cycle assay was used to evaluate the activity of microRNA mimics. A549 cells were plated at a density of approximately 45,000 cells per well of a 24-well plate. The following day, cells were transfected with microRNA mimics and control oligomeric compounds, using RNAIMAX as the transfection reagent. Oligomeric compounds were tested at concentrations ranging from 0.1 nM to 100 nM. Control oligomeric compounds were also tested. Approximately 24 hours following transfection, nocodazole was added to the cells at a concentration ranging from 0.5 to 2.0 μg/ml. Approximately 16 hours later, the cells were harvested, washed, ethanol-fixed and stained with propidium iodide. Cells cycle profiles were generated by subjecting the stained cells to flow cytometry (FACSCAN).
For orientation: Flow cytometry measures light scatter and fluorescence of single cells or particles in a stream.

[7] abbreviates: full compound with intact phosphorous moiety, first table.
Setting [8] is: antisense strand duplexed with sense strand ISIS 341401, PTEN mRNA, read-out: EC50 (nM) siRNA.
Where [9] appears, read: single stranded antisense compound, PTEN mRNA, read-out: EC50 (nM) ssRNA.
[10] abbreviates: Dose @ 75 mg/kg (48 h time point).

By EC50 is commonly meant the midpoint of the concentration-response curve. As usually defined, the % inhibition is how much of the control response was suppressed. Low values mean little suppression, high ones strong suppression.

For “P-TRUfGfUfCfUfCfUfGfGfUfCfCfUfUfAfCfUfUfAeAe (antisense TUGUCUCUGGUCCUUACUUAA; sugars from the 5' end [R5Me]1 f18 e2, 5' {P}, backbone not given here) [ISIS 432356, modified ssRNA targeting PTEN]”, in series [1], the “T1/2” value is 8.7 h. The T1/2 full length in series [2] (setting [7]) turned out to be 8.7 h. In addition, the EC50 in the series on human PTEN (setting [8]) stood at 0.7 nM; in the series on human PTEN (setting [9]) it was 3 nM.
In the case of “P-TScUfGmUfCmUfCmUfGmGfUmCfCmUfUmAfCmUfUmAeAe (antisense TUGUCUCUGGUCCUUACUUAA; 5'-phosphate, 2'-F/2'-OMe, MOE modifications, chemistry not fully specified) [ISIS 467074]”, the “inhibition of PTEN” value in the series with PTEN [3] was “lowest amount of PTEN reduction”. Besides, the “% inhibition” value with PTEN [3] was 11%. Besides, the concentration giving a half-maximal response (EC50) with PTEN [4] is 2.5 nM; in the series with human PTEN (setting [8]), 0.1 nM; in the series with human PTEN (setting [9]), 2.5 nM. The “% Kd” value with PTEN [5] was determined as 52%. In addition, the “compound lacking the 5′-phosphate in tissue” value in series [6] (75 mg/kg, 48 h) is “detected”. Moreover, the “level of intact compound in tissue” value in series [6] (75 mg/kg, 48 h) is “not detected”. Moreover, in series [6] (setting [10]), the “Tissue Level of intact compound (μg/g)” value is recorded as “none detected”.
In the case of “P-TdUfGfUfCfUfCfUfGfGfUfCfCfUfUfAfCfUfUfAeAe (antisense {P}-[DMAEAc-T]fUfGfUfCfUfCfUfGfGfUfCfCfU*fU*fA*fC*fU*fU*eA*eA) [ISIS 422391, modified ssRNA targeting PTEN]”, in series [1], the “T1/2” value was determined as 6.5 h. Moreover, the T1/2 full length in series [2] (four compounds tested separately, second table) worked out at 3.7 h; in series [2] (setting [7]), 6.5 h. For the same substance, the EC50 in the series with human PTEN (setting [8]) was 0.5 nM; in the series on human PTEN (setting [9]), 5 nM.
As to “P-USfUfGfUfCfUfCfUfGfGfUfCfCfUfUfAfCfUfUf (antisense UUGUCUCUGGUCCUUACUU; 5'-phosphate, 2'-F, phosphorothioate, chemistry not fully specified) [ISIS 398701, modified ssRNA targeting PTEN]”, the “T1/2” value in series [1] is on record as 18.2 h.
As to “P-UmAfGfCfAfGfCfAfCmGmUfAfAmAmUfAfUfUfGfGmCmGmAeAe [ss miR-16]”, the cell cycle phenotype result in the series with A549 cells was “blocking cells in the G1 phase of the cell cycle”.
Take “P-UmUfGmUfCmUfCmUfGmGfUmCfCmUfUmAfCmUfUmAeAe (antisense UUGUCUCUGGUCCUUACUUAA; sugars from the 5' end mfmfmfmfmfmfmfmfmfmee, 5' {P}, backbone not given here) [ISIS 418046, modified ssRNA targeting PTEN]”: the EC50 in the series with PTEN [4] amounted to 0.83 nM; with human PTEN (setting [8]), 0.2 nM; with human PTEN (setting [9]), 2 nM.
Turning to “Py-^meUmUfGmUfCmUfCmUfGmGfUmCfCmUfUmAfCmUfUmAeAe (antisense UUGUCUCUGGUCCUUACUUAA; 5'-methylenephosphonate, 2'-F/2'-OMe, MOE, chemistry not fully specified) [ISIS 467076]”, in the series with PTEN [3], the “inhibition of PTEN” value is on record as “smaller inhibition of PTEN”. Further, in the series with PTEN [3], the “% inhibition” value is 16%. The half-maximal effective concentration (EC50) in the series with PTEN [4] came to 6 nM; in the series on human PTEN (setting [8]) it was 0.05 nM; with human PTEN (setting [9]) it was 6 nM. Besides, the “% Kd” value in the series on PTEN [5] is 34%. In series [6] (75 mg/kg, 48 h), the “level of intact compound in tissue” value was “present at a lower concentration”. The “Tissue Level of intact compound” value in series [6] (setting [10]) came to 22.5 µg/g.
On to “ds miR-16: double-stranded miR-16 mimic: UAGCAGCACGUAAAUAUUGGCG (SEQ 21) with AAAGCGUCGUGCAUUUAUAACC (SEQ 22) (chain 2 CCAAUAUUUACGUGCUGCGAAA; listed as RNA, chemistry not given here) [reference compound]”, for which the cell cycle phenotype entry with A549 cells was “blocked cells in the G1 phase of the cell cycle”.
